Source: article PMC9012943, “Oral remdesivir derivative VV116 is a potent inhibitor of respiratory syncytial virus with efficacy in mouse model” (Signal Transduction and Targeted Therapy, 2022)
“And” between values parts separate entries of the source, which are not always exact repeats. Identical values can stand only once. Like-named read-outs stand apart in the source and are kept apart here.

Experiments:
[1] = Cellular toxicity in A549 cells (WST-8 cell viability); format: cell-based; settings: human
Experimental: Cell viability was performed in 96-well plate with triplicate for each concentration. All drugs were diluted 2 times with 9 gradients starting at 500 micromores in maintenance medium (DMEM containing 2% FBS). After 48 h incubation, the supernatant was removed, and 10 μL WST-8 (2-(2-methoxy-4-(phenyl)-3-(4-(phenyl) to 5 (2, 4-sulpho benzene) -2 h-tetrazolium monosodium salt) in maintenance medium was added in medium. Plates were measured at 450 nm wavelength using spectrophotometer (BioTek) after 2 h incubation, and cell viability was calculated.

RSV A2 [2] = test: Inhibition of RSV A2 replication in A549 cells (qRT-PCR); format: cell-based, respiratory syncytial virus; settings: for EC50: human respiratory syncytial virus, RSV A2 MOI 2, 48 h
Experimental: A549, HEp-2 or NHBE cells were plated into 48 well-plate and incubated overnight. Upon reaching 80% cell confluence, cells were infected RSV A2 (at an MOI of 2 in A549, MOI of 0.5 in HEp-2, and MOI of 1 in NHBE cells) for 2 h after cells were incubated for 1 h with varying concentrations of drugs. Then, the virus-drug mixture was removed, and cells were cultured with drug-containing medium. At 48 h post inoculation, total RNAs were extracted from cells and then in reverse transcription using PrimeScript RT reagent Kit with gDNA Eraser (TaKaRa). For determining the viral copies, absolute quantitative RT-PCR was performed with TB Green® Premix Ex Taq^TM II (TaKaRa). RSV A2 F fragment was quantified with primers 5’-[…]-3’; and 5’-[…]-3’

[3] = Pharmacokinetic study in SD rats; format: in vivo
Experimental: SD rats (N = 3 for each group, male) were fasted for 12 h before dosing (only for the oral administration). The test compound (VV116 or VV116-H) was administered intravenously at 5.0 mg/kg dissolved in DMSO-enthanol-PEG300-saline (5/5/40/50, v/v/v/v), and administered orally at 30 mg/kg dissolved in 40%PEG400+10% Kolliphor® HS15+50% ultrapure water. At 5 min, 0.25, 0.5, 1.0, 2.0, 4.0, 6.0, 8.0, and 24 h post-dosing, blood samples were collected from the jugular vein into EDTA-K2 tubes. […] samples were obtained following general procedures and the concentrations of analytes in the supernatant were analyzed by LC-MS/MS.

RSV A2 [4] = format: in vivo, Balb/c mice; settings: ribavirin 100 mg/kg b.i.d., day 4 p.i.
Experimental: Considering the potent effect of VV116 inhibiting RSV in vitro, we further tested the effect of […] against RSV in a mouse model. Ribavirin, the off-label used drug to treat RSV in the clinic, was employed as a control. To this end, 6–8-week Balb/c mice were intranasally infected with 4 × 10^6 FFU of RSV per mouse (day 0), and were then treated with VV116 (25, 50, and 100 mg/kg) or ribavirin (50 and 100 mg/kg) bis in die (b.i.d.) (supplementary Fig S3). […] Viral RNA level in the lung was measured with quantitative RT-PCR and virion load was measured with immunoplaque assay (Fig. 1e). […] We also evaluated the lung pathology of the challenged mice by histochemical analysis.
Specific pathogen-free (SPF) female Balb/c mice at the age of 6–8 weeks were purchased from Beijing Vital River Laboratory Animal Technology Co., Ltd. The mice were housed in an SPF environment under standard conditions. All mouse experiments were approved by the ethics committee of the Wuhan Institute of Virology, Chinese Academy of Science (permit number WIVA25202113). Thirty mice (5 animals per group, 6 groups) were anaesthetized with isoflurane and challenged with 4×10^6 FFU of RSV A2 intranasally (i.n.). The mice were given drugs by intragastric administration. Treatments were commenced in 1 h post infection and continued for 4 days. […] The weight of the mice was recorded daily. […]

RSV = system: RSV; set-up: method as in PMID 8413475; settings: prophylactic treatment; cited from earlier work
[5] = A549 cells, 48 h, read-out: CC50
[6] = X1 (VV116) or GS-441524 (VV116-H), i.v. 5.0 mg/kg
[7] = X1 (VV116) or GS-441524 (VV116-H), p.o. 30.0 mg/kg

Compound: Nc1ccn([C@@H]2O[C@@](CO)(CCl)[C@@H](O)[C@H]2F)c(=O)n1 [ALS-8112]
- CC50 at 48 h [1, 5]: > 500000 nM
- SI (RSV A2 [2]): > 1785
- EC50 (RSV A2 [2]): 280 ± 70 nM

Compound: N#C[C@@]1(c2ccc3c(N)ncnn23)O[C@H](CO)[C@@H](O)[C@H]1O [GS-441524, 1′-CN-4-aza-7,9-dideazaadenosine C-nucleoside]
- CC50 at 48 h [1, 5]: > 500000 nM
- SI (RSV A2 [2]): > 608
- EC50 (RSV A2 [2]): 820 ± 460 nM

Compound: CCC(CC)COC(=O)[C@H](C)N[P@](=O)(OC[C@H]1O[C@@](C#N)(c2ccc3c(N)ncnn23)[C@H](O)[C@@H]1O)Oc1ccccc1 [RDV, Remdesivir]
- CC50 at 48 h [1]: 226000 ± 11400 nM
- SI (RSV A2 [2]): 11300
- EC50 (RSV A2 [2]): 20 ± 3 nM

Compound: CC(C)C(=O)OC[C@H]1O[C@@](C#N)(c2ccc3c(N)ncnn23)[C@H](OC(=O)C(C)C)[C@@H]1OC(=O)C(C)C [VV116-H]
- Concentration of X1 or GS-441524 in plasma, Mean ([3]; IV 5.0 mg/kg, 5 min): 1997 ng/mL
- Concentration of X1 or GS-441524 in plasma, individual rats ([3]; IV 5.0 mg/kg, 5 min, 5 mg/kg): 1940 ng/mL and 1960 ng/mL and 2090 ng/mL
- Concentration of X1 or GS-441524 in plasma, Mean ([3]; IV 5.0 mg/kg, 0.25 h): 1557 ng/mL
- Concentration of X1 or GS-441524 in plasma, individual rats ([3]; IV 5.0 mg/kg, 0.25 h, 5 mg/kg): 1560 ng/mL and 1620 ng/mL and 1490 ng/mL
- Concentration of X1 or GS-441524 in plasma, Mean ([3]; IV 5.0 mg/kg, 0.5 h): 983 ng/mL
- Concentration of X1 or GS-441524 in plasma, individual rats ([3]; IV 5.0 mg/kg, 0.5 h, 5 mg/kg): 1040 ng/mL and 921 ng/mL and 988 ng/mL
- Concentration of X1 or GS-441524 in plasma, Mean ([3]; IV 5.0 mg/kg, 1.0 h): 502 ng/mL
- Concentration of X1 or GS-441524 in plasma, individual rats ([3]; IV 5.0 mg/kg, 1.0 h, 5 mg/kg): 425 ng/mL and 522 ng/mL and 558 ng/mL
- Concentration of X1 or GS-441524 in plasma, Mean ([3]; IV 5.0 mg/kg, 2.0 h): 158 ng/mL
- Concentration of X1 or GS-441524 in plasma, individual rats ([3]; IV 5.0 mg/kg, 2.0 h, 5 mg/kg): 150 ng/mL and 163 ng/mL and 162 ng/mL
- Concentration of X1 or GS-441524 in plasma, Mean ([3]; IV 5.0 mg/kg, 4.0 h): 25 ng/mL
- Concentration of X1 or GS-441524 in plasma, individual rats ([3]; IV 5.0 mg/kg, 4.0 h, 5 mg/kg): 23.6 ng/mL and 24.3 ng/mL and 27.8 ng/mL
- Concentration of X1 or GS-441524 in plasma, Mean ([3]; IV 5.0 mg/kg, 6.0 h): 11 ng/mL
- Concentration of X1 or GS-441524 in plasma, individual rats ([3]; IV 5.0 mg/kg, 6.0 h, 5 mg/kg): BQL (2×) and 11.2 ng/ml
- Concentration of X1 or GS-441524 in plasma, individual rats ([3]; IV 5.0 mg/kg, 8.0 h): BQL
- Concentration of X1 or GS-441524 in plasma, individual rats ([3]; IV 5.0 mg/kg, 24.0 h): BQL
- Concentration of X1 or GS-441524 in plasma, Mean ([3]; PO 30.0 mg/kg, 5 min): 251 ng/mL
- Concentration of X1 or GS-441524 in plasma, individual rats ([3]; PO 30.0 mg/kg, 5 min, 30 mg/kg): 122 ng/mL and 279 ng/mL and 353 ng/mL
- Concentration of X1 or GS-441524 in plasma, Mean ([3]; PO 30.0 mg/kg, 0.25 h): 1480 ng/mL
- Concentration of X1 or GS-441524 in plasma, individual rats ([3]; PO 30.0 mg/kg, 0.25 h, 30 mg/kg): 1450 ng/mL and 1180 ng/mL and 1810 ng/mL
- Concentration of X1 or GS-441524 in plasma, Mean ([3]; PO 30.0 mg/kg, 0.5 h): 1963 ng/mL
- Concentration of X1 or GS-441524 in plasma, individual rats ([3]; PO 30.0 mg/kg, 0.5 h, 30 mg/kg): 1790 ng/mL and 1440 ng/mL and 2660 ng/mL
- Concentration of X1 or GS-441524 in plasma, Mean ([3]; PO 30.0 mg/kg, 1.0 h): 1523 ng/mL
- Concentration of X1 or GS-441524 in plasma, individual rats ([3]; PO 30.0 mg/kg, 1.0 h, 30 mg/kg): 1570 ng/mL and 1490 ng/mL and 1510 ng/mL
- Concentration of X1 or GS-441524 in plasma, Mean ([3]; PO 30.0 mg/kg, 2.0 h): 1717 ng/mL
- Concentration of X1 or GS-441524 in plasma, individual rats ([3]; PO 30.0 mg/kg, 2.0 h, 30 mg/kg): 1610 ng/mL and 1730 ng/mL and 1810 ng/mL
- Concentration of X1 or GS-441524 in plasma, Mean ([3]; PO 30.0 mg/kg, 4.0 h): 860 ng/mL
- Concentration of X1 or GS-441524 in plasma, individual rats ([3]; PO 30.0 mg/kg, 4.0 h, 30 mg/kg): 761 ng/mL and 995 ng/mL and 825 ng/mL
- Concentration of X1 or GS-441524 in plasma, Mean ([3]; PO 30.0 mg/kg, 6.0 h): 179 ng/mL
- Concentration of X1 or GS-441524 in plasma, individual rats ([3]; PO 30.0 mg/kg, 6.0 h, 30 mg/kg): 154 ng/mL and 165 ng/mL and 218 ng/mL
- Concentration of X1 or GS-441524 in plasma, Mean ([3]; PO 30.0 mg/kg, 8.0 h): 76 ng/mL
- Concentration of X1 or GS-441524 in plasma, individual rats ([3]; PO 30.0 mg/kg, 8.0 h, 30 mg/kg): 32.8 ng/mL and 90 ng/mL and 106 ng/mL
- Concentration of X1 or GS-441524 in plasma, Mean ([3]; PO 30.0 mg/kg, 24.0 h): 13 ng/mL
- Concentration of X1 or GS-441524 in plasma, individual rats ([3]; PO 30.0 mg/kg, 24.0 h, 30 mg/kg): 9.79 ng/mL and 23.3 ng/mL and 6.27 ng/mL
- AUC0-t [3, 6]: 1689 ± 80 ng·h/mL
- AUC0-∞ [3, 6]: 1709 ± 74 ng·h/mL
- CL [3, 6]: 48.8 ± 2.1 mL/min/kg
- Cmax [3, 6]: 1997 ± 81 ng/mL
- MRT0-∞ [3, 6]: 0.82 ± 0.05 h
- T1/2 [3, 6]: 0.73 ± 0.07 h
- Vss [3, 6]: 2.41 ± 0.05 L/kg
- AUC0-t [3, 7]: 7664 ± 802 ng·h/mL
- AUC0-∞ [3, 7]: 7768 ± 827 ng·h/mL
- Cmax [3, 7]: 2060 ± 520 ng/mL
- MRT0-∞ [3, 7]: 3.47 ± 0.80 h
- T1/2 [3, 7]: 4.59 ± 2.08 h
- Tmax [3, 7]: 1.00 ± 0.87 h
- F ([3]; X1 (VV116) or GS-441524 (VV116-H), p.o. 30.0 mg/kg vs i.v. 5.0 mg/kg): 75.6%

Compound: [2H]c1cc([C@]2(C#N)O[C@H](COC(=O)C(C)C)[C@@H](OC(=O)C(C)C)[C@H]2OC(=O)C(C)C)n2ncnc(N)c12 [X6]
- CC50 at 48 h [1, 5]: 95900 ± 9270 nM
- SI (RSV A2 [2]): 80
- EC50 (RSV A2 [2]): 1200 ± 320 nM

Compound: NC(=O)c1ncn([C@@H]2O[C@H](CO)[C@@H](O)[C@H]2O)n1 [ribavirin, Ribavirin]
- Decrease of infectious titers in lung (RSV A2 [4]): ~ 2.0 log10
- Decrease of viral RNA copies in lung (RSV A2 [4]): ~ 1.5 log10

Compound: palivizumab: approved prophylactic treatment for prevention of serious RSV lower respiratory tract disease in high-risk children
- Share of individuals in whom effective in preventing hospitalization (RSV): ~ 50%
